# Test results as given in patent US20220395464A1, “ORALLY ADMINISTERED SOLID DOSAGE FORM DRUG” (ASCENTAWITS PHARMACEUTICALS, LTD., priority 2019, published 2022).
# pIC50: −log10 of the molar value. “Also recorded” adds a separate entry of the source. Where two headings read alike, the source gives them in different places.
# Tests used:
# [1] = Solution stability study of AST-3424 in different solutions (HPLC content); format: physicochemical; details: for Time the API is stable in solution / Content: room temperature
# Procedure: 1.3 Solution Stability Study
# About 107.32 mg of AST-3424 (50% v/v, ethanol) was taken and placed in a 50 ml-measuring flask. Then, solvents which are an organic solvent, buffer solution or purified water, were respectively added to a scale mark. At each appointed time, 1 ml of samples was measured for HPLC analysis respectively. If the API was stable in the solution with the different pH values, a sampling appointed time was extended, for instance 5 days or more.
# In the solubility study, for a determination of sample contents, 1 ml of culture medium were measured respectively, and then centrifuged at 1000 rpm for 10 minutes. Subnatant after centrifugation were collected respectively for HPLC analysis. In the solution stability study, the samples may be provided directly for HPLC analysis.
# The contents were determined by a HPLC method: AST-3424 was used as an external standard for quantification.
# A wavelength of UVDAD detector was 230 nm. C18 column was used at a temperature of 25° C.
# [2] = Solubility study of AST-3424 (shaking at 25° C., HPLC content); format: physicochemical; details: methanol, propanol, butanol, ethylene glycol, propylene glycol, glycerol, 1,3-butanediol, 1,2-butanediol; initial investigation
# [3] = tested on: H460 non-small cell lung cancer; details: cited from earlier work
structure (smiles),measurement,setting,value
"C[C@H](OP(=O)(N1CC1)N1CC1)c1ccc([N+](=O)[O-])c(Oc2cccc(C(=O)N(C)C)c2)c1 [AST-3424, (S)-1-(3-(3-N,N-Dimethylaminocarbonyl)phenoxy-4-nitrophenyl)-1-ethyl-N,N′-bis(ethylene) phosphoramidate]",Time the API is stable in solution,[1]; 1:1 solution of ethanol and propylene glycol,at least 72 hours
same,Content,"[1]; Acetate buffer of pH 4.5, 0 h",0.673 mg/mL
same,Content,"[1]; Acetate buffer of pH 4.5, 1 h",0.413 mg/mL
same,Content,"[1]; Acetate buffer of pH 4.5, 4 h",0.218 mg/mL
same,Content,"[1]; Acetate buffer of pH 4.5, 8 h",0.093 mg/mL
same,Content,"[1]; Acetate buffer of pH 4.5, 24 h",0.013 mg/mL
same,Content,"[1]; Alkaline borate buffer of pH 10.0, 0 h",1.265 mg/mL
same,Content,"[1]; Alkaline borate buffer of pH 10.0, 1 h",1.165 mg/mL
same,Content,"[1]; Alkaline borate buffer of pH 10.0, 4 h",1.261 mg/mL
same,Content,"[1]; Alkaline borate buffer of pH 10.0, 8 h",1.258 mg/mL
same,Content,"[1]; Alkaline borate buffer of pH 10.0, 24 h",1.261 mg/mL
same,Content,"[1]; Alkaline borate buffer of pH 10.0, 48 h",1.257 mg/mL
same,Content,"[1]; Alkaline borate buffer of pH 10.0, 72 h",1.242 mg/mL
same,Content,"[1]; Ethanol/Propylene glycol (50:50, v/v), 0 h",1.295 mg/mL
same,Content,"[1]; Ethanol/Propylene glycol (50:50, v/v), 1 h",1.287 mg/mL
same,Content,"[1]; Ethanol/Propylene glycol (50:50, v/v), 4 h",1.287 mg/mL
same,Content,"[1]; Ethanol/Propylene glycol (50:50, v/v), 8 h",1.287 mg/mL
same,Content,"[1]; Ethanol/Propylene glycol (50:50, v/v), 24 h",1.302 mg/mL
same,Content,"[1]; Ethanol/Propylene glycol (50:50, v/v), 48 h",1.284 mg/mL
same,Content,"[1]; Ethanol/Propylene glycol (50:50, v/v), 72 h",1.275 mg/mL
same,Content,"[1]; Ethanol, 0 h",1.238 mg/mL
same,Content,"[1]; Ethanol, 1 h",1.280 mg/mL
same,Content,"[1]; Ethanol, 4 h",1.246 mg/mL
same,Content,"[1]; Ethanol, 8 h",1.240 mg/mL
same,Content,"[1]; Ethanol, 24 h",1.240 mg/mL
same,Content,"[1]; Ethanol, 48 h",1.278 mg/mL
same,Content,"[1]; Ethanol, 72 h",1.236 mg/mL
same,Content,"[1]; Phosphate buffer of pH 6.8, 0 h",1.202 mg/mL
same,Content,"[1]; Phosphate buffer of pH 6.8, 1 h",1.200 mg/mL
same,Content,"[1]; Phosphate buffer of pH 6.8, 4 h",1.193 mg/mL
same,Content,"[1]; Phosphate buffer of pH 6.8, 8 h",1.185 mg/mL
same,Content,"[1]; Phosphate buffer of pH 6.8, 24 h",1.168 mg/mL
same,Content,"[1]; Phosphate buffer of pH 6.8, 48 h",1.145 mg/mL
same,Content,"[1]; Phosphate buffer of pH 6.8, 72 h",1.102 mg/mL
same,Content,"[1]; Phosphate buffer of pH 7.4, 0 h",1.267 mg/mL
same,Content,"[1]; Phosphate buffer of pH 7.4, 1 h",1.266 mg/mL
same,Content,"[1]; Phosphate buffer of pH 7.4, 4 h",1.266 mg/mL
same,Content,"[1]; Phosphate buffer of pH 7.4, 8 h",1.262 mg/mL
same,Content,"[1]; Phosphate buffer of pH 7.4, 24 h",1.262 mg/mL
same,Content,"[1]; Phosphate buffer of pH 7.4, 48 h",1.249 mg/mL
same,Content,"[1]; Phosphate buffer of pH 7.4, 72 h",1.228 mg/mL
same,Content,"[1]; Purified water, 0 h",1.186 mg/mL
same,Content,"[1]; Purified water, 1 h",1.126 mg/mL
same,Content,"[1]; Purified water, 4 h",1.056 mg/mL
same,Content,"[1]; Purified water, 8 h",1.005 mg/mL
same,Content,"[1]; Purified water, 24 h",0.918 mg/mL
same,Content,"[1]; Purified water, 48 h",0.860 mg/mL
same,Content,"[1]; Purified water, 72 h",0.810 mg/mL
same,"Solution stability, in words",[1]; acetate buffer of pH 4.5,unstable; also recorded: very unstable
same,Time the API is stable in solution,[1]; buffer of pH 7.4,at least 72 hours
same,Time the API is stable in solution,[1]; buffer of pH 10.0,at least 72 hours
same,Time the API is stable in solution,[1]; ethanol,at least 72 hours
same,"Solution stability, in words",[1]; phosphate buffer of pH 6.8,unstable; also recorded: less stable
same,"Solution stability, in words",[1]; phosphate buffer of pH 7.4,stable
same,"Solution stability, in words",[1]; purified water,unstable; also recorded: less stable
same,Time the API is stable in solution,[1]; solution of pH 6.8,at least 24 hours
same,"Solubility, in words",[2],good solubility
same,pIC50,"[3]; + TH3021 (inhibitor of AKR1C3), (Reference)",6.85
same,pIC50,"[3]; without TH3021, (Reference)",> 8.34
